Measurements: patent publication US9290467B2, “Cyclic amides” (Hoffmann-La Roche Inc., priority 2012, dated 2016)
pIC50: −log10 of the molar value.

The molecules below were run against Cathepsin L (Homo sapiens (Human), UniProt P07711) (assay: Cathepsin enzyme inhibition assay (fluorogenic peptide substrate Z-Val-Val-Arg-AMC)). Details: enzyme 1 nM, substrate 20 μM, pH 6.5.
Type: biochemical
Method: Enzyme activity is measured by observing the increase in fluorescence intensity caused by cleavage of a peptide substrate containing a fluorophore whose emission is quenched in the intact peptide.
Assay buffer: 100 mM potassium phosphate pH 6.5, EDTA-Na 5 mM, Triton X-100 0.001%, DDT 5 mM.
Enzymes (all at 1 nM): human and mouse Cathepsin S, Cat K, Cat B, Cat L
Substrate (20 μM): Z-Val-Val-Arg-AMC, except for Cat K which uses Z-Leu-Arg-AMC (both from Bachem).
AMC=7-Amino-4-Methyl-Coumarin.
Excitation 360 nm, Emission 465 nm.
Enzyme is added to the substance dilutions in 96-well microtitre plates and the reaction is started with substrate. […] IC50 are calculated by standard methods. The results are expressed in μM in the following table.

Cathepsin L, sequence (P07711 114-333): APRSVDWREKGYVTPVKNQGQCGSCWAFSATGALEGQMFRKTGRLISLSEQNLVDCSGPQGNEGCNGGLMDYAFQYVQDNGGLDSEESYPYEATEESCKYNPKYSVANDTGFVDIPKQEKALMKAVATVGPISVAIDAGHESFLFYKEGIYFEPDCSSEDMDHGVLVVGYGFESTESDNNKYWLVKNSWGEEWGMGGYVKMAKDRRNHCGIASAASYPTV

**Q.** With `COc1ccc2c(c1)CCCCCOc1ccc(cc1Cl)C[C@@H](C(=O)NC1(C#N)CC1)NC2=O` [Example 22, (S)-19-Chloro-9-methoxy-5-oxo-17-oxa-4-aza-tricyclo[16.2.2.0*6,11*]docosa-1(21),6,8,10,18(22),19-hexaene-3-carboxylic acid (1-cyano-cyclopropyl)-amide] as the molecule, how does the pIC50 read?
**A.** 6.93

**Q.** `N#CC1(NC(=O)[C@@H]2Cc3ccc(c(Cl)c3)OC/C=C/COc3c(Cl)cc(F)cc3C(=O)N2)CC1` [Example 48, (E)-(S)-10,19-Dichloro-8-fluoro-5-oxo-12,17-dioxa-4-aza-tricyclo[16.2.2.0*6,11*]docosa-1(21),6,8,10,14,18(22),19-heptaene-3-carboxylic acid (1-cyano-cyclopropyl)-amide] was tested. Which pIC50 did it give?
**A.** 6.86

**Q.** How did the pIC50 turn out when `N#CC1(NC(=O)[C@@H]2Cc3ccc(c(Cl)c3)OC/C=C/COc3ccc(Br)cc3C(=O)N2)CC1` [Example 8, (E)-(S)-8-Bromo-19-chloro-5-oxo-12,17-dioxa-4-aza-tricyclo[16.2.2.0*6,11*]docosa-1(21),6,8,10,14,18(22),19-heptaene-3-carboxylic acid (1-cyano-cyclopropyl)-amide] was run?
**A.** 7.61

**Q.** With `N#CC1(NC(=O)[C@@H]2Cc3ccc(c(Cl)c3)OCCCCOc3ccc(Br)cc3C(=O)N2)CC1` [Example 9, (S)-8-Bromo-19-chloro-5-oxo-12,17-dioxa-4-aza-tricyclo[16.2.2.0%6,11&]docosa-1(21),6,8,10,18(22),19-hexaene-3-carboxylic acid (1-cyano-cyclopropyl)-amide] as the molecule, how does the pIC50 read?
**A.** 8.00

**Q.** `N#CC1(NC(=O)[C@@H]2Cc3ccc(c(Cl)c3)OC/C=C/CCN3CC(F)(F)CC3C(=O)N2)CC1` (mixture of isomers) [Example 14, (E)-(S)-18-Chloro-8,8-difluoro-5-oxo-16-oxa-4,10-diaza-tricyclo[15.2.2.0*6,10*]henicosa-1(20),13,17(21),18-tetraene-3-carboxylic acid (1-cyano-cyclopropyl)-amide] was tested. Which pIC50 did it give?
**A.** 5.22

**Q.** How did the pIC50 turn out when `CSc1ccc2c(c1)C(=O)N[C@H](C(=O)NC1(C#N)CC1)Cc1ccc(c(Cl)c1)OC/C=C/CO2` [Example 47, (E)-(S)-19-Chloro-8-methylsulfanyl-5-oxo-12,17-dioxa-4-aza-tricyclo[16.2.2.0*6,11*]docosa-1(21),6,8,10,14,18(22),19-heptaene-3-carboxylic acid (1-cyano-cyclopropyl)-amide] was run?
**A.** 8.80

**Q.** `N#CC1(NC(=O)[C@@H]2Cc3ccc(c(Cl)c3)OC/C=C/COc3cc(C(F)(F)F)ccc3C(=O)N2)CC1` [Example 20, (E)-(S)-19-Chloro-5-oxo-9-trifluoromethyl-12,17-dioxa-4-aza-tricyclo[16.2.2.0*6,11*]docosa-1(21),6,8,10,14,18(22),19-heptaene-3-carboxylic acid (1-cyano-cyclopropyl)-amide] was tested. Which pIC50 did it give?
**A.** 7.32

**Q.** With `N#CC1(NC(=O)[C@@H]2Cc3ccc(c(I)c3)OC/C=C/COc3ccccc3C(=O)N2)CC1` [Example 24, (E)-(S)-19-Iodo-5-oxo-12,17-dioxa-4-aza-tricyclo[16.2.2.*6,11*]docosa-1(21),6,8,10,14,18(22),19-heptaene-3-carboxylic acid (1-cyano-cyclopropyl)-amide] as the molecule, how does the pIC50 read?
**A.** 6.79

**Q.** With `N#CC1(NC(=O)[C@@H]2Cc3ccc(c(Cl)c3)OC/C=C/CCN3C[C@@H](F)CC3C(=O)N2)CC1` (mixture of isomers) [Example 13, (E)-(3S,8S)-18-Chloro-8-fluoro-5-oxo-16-oxa-4,10-diaza-tricyclo[15.2.2.0*6,10*]henicosa-1(20),13,17(21),18-tetraene-3-carboxylic acid (1-cyano-cyclopropyl)-amide] as the molecule, how does the pIC50 read?
**A.** 6.02

**Q.** `N#CC1(NC(=O)[C@@H]2Cc3ccc(c(I)c3)OC/C=C/COc3ccccc3C(=O)N2)CC1` [Example 26, (E)-(S)-19-Iodo-5-oxo-12,17-dioxa-4-aza-tricyclo[16.2.2.0*6,11*]docosa-1(21),6,8,10,14,18(22),19-heptaene-3-carboxylic acid (1-cyano-cyclopropyl)-amide, stereoaxis S] was tested. Which pIC50 did it give?
**A.** 6.86

**Q.** `N#CC1(NC(=O)[C@@H]2Cc3ccc(c(Cl)c3)OCCCCOc3ccc(Cl)cc3C(=O)N2)CC1` [Example 11, (S)-8,19-Dichloro-5-oxo-12,17-dioxa-4-aza-tricyclo[16.2.2.0*6,11*]docosa-1(21),6,8,10,18(22),19-hexaene-3-carboxylic acid (1-cyano-cyclopropyl)-amide] was tested. Which pIC50 did it give?
**A.** 7.94

**Q.** With `N#CC1(NC(=O)[C@@H]2Cc3ccc(cc3)OC/C=C/COc3cccc(c3)C(=O)N2)CC1` [Example 2, (E)-(S)-5-Oxo-11,16-dioxa-4-aza-tricyclo[15.2.2.1*6,10*]docosa-1(20),6,8,10(22),13,17(21),18-heptaene-3-carboxylic acid (1-cyano-cyclopropyl)-amide] as the molecule, how does the pIC50 read?
**A.** 6.64

**Q.** With `N#CC1(NC(=O)[C@@H]2Cc3ccc(c(Cl)c3)OC/C=C/COc3cccc(c3)C(=O)N2)CC1` [Example 6, (E)-(S)-18-Chloro-5-oxo-11,16-dioxa-4-aza-tricyclo[15.2.2.1*6,10*]docosa-1(20),6,8,10(22),13,17(21),18-heptaene-3-carboxylic acid (1-cyano-cyclopropyl)-amide] as the molecule, how does the pIC50 read?
**A.** 7.49

**Q.** With `N#CC1(NC(=O)[C@@H]2Cc3ccc(c(I)c3)OCCCCOc3ccccc3C(=O)N2)CC1` [Example 30, (S)-19-Iodo-5-oxo-12,17-dioxa-4-aza-tricyclo[16.2.2.0*6,11*]docosa-1(21),6(11),7,9,18(22),19-hexaene-3-carboxylic acid (1-cyano-cyclopropyl)-amide] as the molecule, how does the pIC50 read?
**A.** 6.74

**Q.** How did the pIC50 turn out when `N#CC1(NC(=O)[C@@H]2Cc3ccc(c(Cl)c3)OC/C=C/COc3ccc(C(F)(F)F)cc3C(=O)N2)CC1` [Example 34, (E)-(S)-19-Chloro-5-oxo-8-trifluoromethyl-12,17-dioxa-4-aza-tricyclo[16.2.2.0*6,11*]docosa-1(21),6,8,10,14,18(22),19-heptaene-3-carboxylic acid (1-cyano-cyclopropyl)-amide] was run?
**A.** 8.05

**Q.** How did the pIC50 turn out when `N#CC1(NC(=O)[C@@H]2Cc3ccc(c(Cl)c3)OC/C=C/CCc3ccccc3C(=O)N2)CC1` [Example 5, (E)-(S)-19-Chloro-5-oxo-17-oxa-4-aza-tricyclo[16.2.2.0*6,11*]docosa-1(21),6,8,10,14,18(22),19-heptaene-3-carboxylic acid (1-cyano-cyclopropyl)-amide] was run?
**A.** 8.02

**Q.** With `N#CC1(NC(=O)[C@@H]2Cc3ccc(c(Cl)c3)OCCCCOc3cc(C(F)(F)F)ccc3C(=O)N2)CC1` [Example 23, (S)-19-Chloro-5-oxo-9-trifluoromethyl-12,17-dioxa-4-aza-tricyclo[16.2.2.0*6,11*]docosa-1(21),6,8,10,18(22),19-hexaene-3-carboxylic acid (1-cyano-cyclopropyl)-amide] as the molecule, how does the pIC50 read?
**A.** 7.30

**Q.** With `N#CC1(NC(=O)[C@@H]2Cc3ccc(c(Cl)c3)OC/C=C/COc3cc4c(cc3C(=O)N2)CCCC4)CC1` [Example 27, (3E,12S)-22-chloro-N-(1-cyanocyclopropyl)-14-oxo-2,5,11,12,13,14,16,17,18,19-decahydro-7,10-ethenonaphtho[2,3-b][1,12,5]dioxazacyclohexadecine-12-carboxamide] as the molecule, how does the pIC50 read?
**A.** 7.80

**Q.** With `N#CC1(NC(=O)[C@@H]2Cc3ccc(c(Cl)c3)OC/C=C\COc3ccc(F)c(F)c3C(=O)N2)CC1` [Example 46, (Z)—(S)-19-Chloro-7,8-difluoro-5-oxo-12,17-dioxa-4-aza-tricyclo[16.2.2.0*6,11*]docosa-1(21),6,8,10,14,18(22),19-heptaene-3-carboxylic acid (1-cyano-cyclopropyl)-amide] as the molecule, how does the pIC50 read?
**A.** 7.27

**Q.** `N#CC1(NC(=O)[C@@H]2Cc3ccc(c(Cl)c3)OC/C=C/COc3ccc(C4CNC4)cc3C(=O)N2)CC1` [Example 41, (E)-(S)-8-Azetidin-3-yl-19-chloro-5-oxo-12,17-dioxa-4-aza-tricyclo[16.2.2.0*6,11*]docosa-1(21),6,8,10,14,18(22),19-heptaene-3-carboxylic acid (1-cyano-cyclopropyl)-amide] was tested. Which pIC50 did it give?
**A.** 8.28

**Q.** With `CC1(C)CC2C(=O)N[C@H](C(=O)NC3(C#N)CC3)Cc3ccc(c(Cl)c3)OC/C=C/CCN2C1` (mixture of isomers) [Example 15, (E)-(S)-18-Chloro-8,8-dimethyl-5-oxo-16-oxa-4,10-diaza-tricyclo[15.2.2.0*6,10*]henicosa-1(20),13,17(21),18-tetraene-3-carboxylic acid (1-cyano-cyclopropyl)-amide] as the molecule, how does the pIC50 read?
**A.** 6.78

**Q.** `N#CC1(NC(=O)[C@@H]2Cc3ccc(c(Cl)c3)OCCCCOc3ccc(F)cc3C(=O)N2)CC1` [Example 35, (S)-19-Chloro-8-fluoro-5-oxo-12,17-dioxa-4-aza-tricyclo[16.2.2.0*6,11*]docosa-1(21),6,8,10,18(22),19-hexaene-3-carboxylic acid (1-cyano-cyclopropyl)-amide] was tested. Which pIC50 did it give?
**A.** 7.64

**Q.** With `N#CC1(NC(=O)[C@@H]2Cc3ccc(c(Cl)c3)OC/C=C/CNc3ccc(Br)cc3C(=O)N2)CC1` [Example 38, (E)-(S)-8-Bromo-19-chloro-5-oxo-17-oxa-4,12-diaza-tricyclo[16.2.2.0*6,11*]docosa-1(21),6,8,10,14,18(22),19-heptaene-3-carboxylic acid (1-cyano-cyclopropyl)-amide] as the molecule, how does the pIC50 read?
**A.** 8.00

**Q.** With `CSc1ccc2c(c1)C(=O)N[C@H](C(=O)NC1(C#N)CC1)Cc1ccc(c(Cl)c1)OCCCCO2` [Example 51, (S)-19-Chloro-8-methylsulfanyl-5-oxo-12,17-dioxa-4-aza-tricyclo[16.2.2.0*6,11*]docosa-1(21),6,8,10,18(22),19-hexaene-3-carboxylic acid (1-cyano-cyclopropyl)-amide] as the molecule, how does the pIC50 read?
**A.** 8.80

**Q.** With `N#CC1(NC(=O)[C@@H]2Cc3ccc(c(Cl)c3)OCCCCOc3ccc(C(F)(F)F)cc3C(=O)N2)CC1` [Example 37, (S)-19-Chloro-5-oxo-8-trifluoromethyl-12,17-dioxa-4-aza-tricyclo[16.2.2.0*6,11*]docosa-1(21),6,8,10,18(22),19-hexaene-3-carboxylic acid (1-cyano-cyclopropyl)-amide] as the molecule, how does the pIC50 read?
**A.** 8.05
